Measured values published in ChEMBL document CHEMBL1137454, “Natural bromophenols from the marine red alga Polysiphonia urceolata (Rhodomelaceae): structural elucidation and DPPH radical-scavenging activity” (Bioorg Med Chem, 2007).

Assay: DPPH radical scavenging activity relative to control
Type: functional

IC50 | Structure (SMILES)
9.67 µM | CC(=O)/C=C/c1cc(O)c(O)c(Br)c1
19.6 µM | Oc1cc(CCc2cc(O)c(O)c(Br)c2)cc(Br)c1O

The remaining lines, values behind:

Structure (SMILES) | IC50
CCCCOC(=O)Cc1cc(Br)c(O)c(Br)c1 | 16.1 µM
O=C(O)C(Cc1cc(O)c(O)c(Br)c1)c1cc(Br)c(O)c(Br)c1 (stereo not given) | 21.9 µM
Cc1cc(C(C)(C)C)c(O)c(C(C)(C)C)c1 [BUTYLATED HYDROXYTOLUENE] | 83.8 µM
